# Patent publication US10253039B2, “Inhibitors of bacterial DNA gyrase with efficacy against gram-negative bacteria” (priority 2014, dated 2019)
# System: Edwardsiella tarda
# Assay: MIC, microdilution in 96-well plates
# Assay type: cell-based
# Conditions: D: Edwardsiella tarda
# Procedure: (§1) A microdilution method in 96-well plates was used and the MIC protocol established by the Clinical Laboratory Standards Institute was followed. From a growing subculture, a 1:10000 inoculum of each strain in Luria-Bertani media was prepared and aliquoted 100 μL in 4 columns of wells, except for the top row wells, which contained 200 μL of inoculum. A solution of gyramide C2 was aliquoted into 3 of the wells containing 200 μL and DMSO was added to the 4th well. The liquid in each of wells was mixed with a multi-channel pipet and 100 μL was transferred to the next well and mixed. The 2-fold dilution was continued down the 96-well plate until 100 μL was left, which was discarded. The plates were incubated at 37° C. with shaking for 16-18 hours. The MIC was determined as the lowest concentration that inhibited growth and had no turbidity by visual inspection.
# (§2) Minimum inhibitory concentrations of various gyramide compounds against 20 strains of bacteria were determined using the procedure described above.
row,Structure (SMILES),MIC [µg/mL]
1,CC(C)Oc1ccc(CN2CC[C@@H](NS(=O)(=O)c3cc(S(=O)(=O)c4ccccc4)cs3)C2)cc1 [Compound 29],> 8
2,N#Cc1cccc(S(=O)(=O)N[C@@H]2CCN(Cc3ccc(OC4CCC4)cc3)C2)c1 [Compound 109],> 8
3,CC(C)Oc1c(Cl)cc(CN2CC[C@@H](NS(=O)(=O)c3cccc(C#N)c3)C2)cc1Cl [Compound 116],> 8
4,O=S(=O)(N[C@@H]1CCN(Cc2ccc(OCC(F)F)cc2)C1)c1cccc(C(F)(F)F)c1 [Compound 64],> 8

# System: E. coli BW25113
# Assay: MIC, microdilution in 96-well plates
# Assay type: cell-based
# Conditions: Escherichia coli, BW25113, B: E. coli BW25113; read-out: MIC
# Procedure: as §1, §2
row,Structure (SMILES),MIC [µg/mL]
1,CC(C)Oc1ccc(CN2CC[C@@H](NS(=O)(=O)c3cc(S(=O)(=O)c4ccccc4)cs3)C2)cc1 [Compound 29],> 8
2,N#Cc1cccc(S(=O)(=O)N[C@@H]2CCN(Cc3ccc(OC4CCC4)cc3)C2)c1 [Compound 109],> 8
3,CC(C)Oc1c(Cl)cc(CN2CC[C@@H](NS(=O)(=O)c3cccc(C#N)c3)C2)cc1Cl [Compound 116],> 8
4,O=S(=O)(N[C@@H]1CCN(Cc2ccc(OCC(F)F)cc2)C1)c1cccc(C(F)(F)F)c1 [Compound 64],> 8

# System: Streptococcus pyogenes
# Assay: MIC, 20-strain panel
# Assay type: cell-based
# Conditions: not given
# Procedure: as §1, §2
row,Structure (SMILES),MIC [µg/mL]
1,CC(C)Oc1ccc(CN2CC[C@@H](NS(=O)(=O)c3cc(S(=O)(=O)c4ccccc4)cs3)C2)cc1 [Compound 29],> 8
2,N#Cc1cccc(S(=O)(=O)N[C@@H]2CCN(Cc3ccc(OC4CCC4)cc3)C2)c1 [Compound 109],> 8
3,CC(C)Oc1c(Cl)cc(CN2CC[C@@H](NS(=O)(=O)c3cccc(C#N)c3)C2)cc1Cl [Compound 116],> 8
4,O=S(=O)(N[C@@H]1CCN(Cc2ccc(OCC(F)F)cc2)C1)c1cccc(C(F)(F)F)c1 [Compound 64],> 8

# System: Klebsiella pneumoniae subsp. pneumoniae
# Assay: MIC, 20-strain panel
# Assay type: cell-based
# Conditions: E: Klebsiella pneumoniae subsp. pneumoniae
# Procedure: as §1, §2
row,Structure (SMILES),MIC [µg/mL]
1,CC(C)Oc1ccc(CN2CC[C@@H](NS(=O)(=O)c3cc(S(=O)(=O)c4ccccc4)cs3)C2)cc1 [Compound 29],> 8
2,N#Cc1cccc(S(=O)(=O)N[C@@H]2CCN(Cc3ccc(OC4CCC4)cc3)C2)c1 [Compound 109],> 8
3,CC(C)Oc1c(Cl)cc(CN2CC[C@@H](NS(=O)(=O)c3cccc(C#N)c3)C2)cc1Cl [Compound 116],> 8
4,O=S(=O)(N[C@@H]1CCN(Cc2ccc(OCC(F)F)cc2)C1)c1cccc(C(F)(F)F)c1 [Compound 64],> 8

# System: Staphylococcus epidermidis
# Assay: MIC, 20-strain panel
# Assay type: cell-based
# Conditions: not given
# Procedure: as §1, §2
row,Structure (SMILES),MIC [µg/mL]
1,CC(C)Oc1ccc(CN2CC[C@@H](NS(=O)(=O)c3cc(S(=O)(=O)c4ccccc4)cs3)C2)cc1 [Compound 29],> 8
2,N#Cc1cccc(S(=O)(=O)N[C@@H]2CCN(Cc3ccc(OC4CCC4)cc3)C2)c1 [Compound 109],> 8
3,CC(C)Oc1c(Cl)cc(CN2CC[C@@H](NS(=O)(=O)c3cccc(C#N)c3)C2)cc1Cl [Compound 116],> 8
4,O=S(=O)(N[C@@H]1CCN(Cc2ccc(OCC(F)F)cc2)C1)c1cccc(C(F)(F)F)c1 [Compound 64],> 8

# System: Shigella flexneri
# Assay: MIC, 20-strain panel
# Assay type: cell-based
# Conditions: G: Shigella flexneri
# Procedure: as §1, §2
row,Structure (SMILES),MIC [µg/mL]
1,CC(C)Oc1ccc(CN2CC[C@@H](NS(=O)(=O)c3cc(S(=O)(=O)c4ccccc4)cs3)C2)cc1 [Compound 29],> 8
2,N#Cc1cccc(S(=O)(=O)N[C@@H]2CCN(Cc3ccc(OC4CCC4)cc3)C2)c1 [Compound 109],> 8
3,CC(C)Oc1c(Cl)cc(CN2CC[C@@H](NS(=O)(=O)c3cccc(C#N)c3)C2)cc1Cl [Compound 116],> 8
4,O=S(=O)(N[C@@H]1CCN(Cc2ccc(OCC(F)F)cc2)C1)c1cccc(C(F)(F)F)c1 [Compound 64],> 8

# System: E. coli MG1655
# Assay: MIC, 20-strain panel
# Assay type: cell-based
# Conditions: Escherichia coli, MG1655, A: E. coli MG1655; read-out: MIC
# Procedure: as §1, §2
row,Structure (SMILES),MIC [µg/mL]
1,CC(C)Oc1ccc(CN2CC[C@@H](NS(=O)(=O)c3cc(S(=O)(=O)c4ccccc4)cs3)C2)cc1 [Compound 29],> 8
2,N#Cc1cccc(S(=O)(=O)N[C@@H]2CCN(Cc3ccc(OC4CCC4)cc3)C2)c1 [Compound 109],> 8
3,CC(C)Oc1c(Cl)cc(CN2CC[C@@H](NS(=O)(=O)c3cccc(C#N)c3)C2)cc1Cl [Compound 116],> 8
4,O=S(=O)(N[C@@H]1CCN(Cc2ccc(OCC(F)F)cc2)C1)c1cccc(C(F)(F)F)c1 [Compound 64],> 8

# System: Staphylococcus saprophyticus subsp. saprophyticus
# Assay: MIC, 20-strain panel
# Assay type: cell-based
# Conditions: not given
# Procedure: as §1, §2
row,Structure (SMILES),MIC [µg/mL]
1,CC(C)Oc1ccc(CN2CC[C@@H](NS(=O)(=O)c3cc(S(=O)(=O)c4ccccc4)cs3)C2)cc1 [Compound 29],> 8
2,N#Cc1cccc(S(=O)(=O)N[C@@H]2CCN(Cc3ccc(OC4CCC4)cc3)C2)c1 [Compound 109],> 8
3,CC(C)Oc1c(Cl)cc(CN2CC[C@@H](NS(=O)(=O)c3cccc(C#N)c3)C2)cc1Cl [Compound 116],> 8
4,O=S(=O)(N[C@@H]1CCN(Cc2ccc(OCC(F)F)cc2)C1)c1cccc(C(F)(F)F)c1 [Compound 64],> 8

# System: Streptococcus agalactiae
# Assay: MIC, 20-strain panel
# Assay type: cell-based
# Conditions: not given
# Procedure: as §1, §2
row,Structure (SMILES),MIC [µg/mL]
1,CC(C)Oc1ccc(CN2CC[C@@H](NS(=O)(=O)c3cc(S(=O)(=O)c4ccccc4)cs3)C2)cc1 [Compound 29],> 8
2,N#Cc1cccc(S(=O)(=O)N[C@@H]2CCN(Cc3ccc(OC4CCC4)cc3)C2)c1 [Compound 109],> 8
3,CC(C)Oc1c(Cl)cc(CN2CC[C@@H](NS(=O)(=O)c3cccc(C#N)c3)C2)cc1Cl [Compound 116],> 8
4,O=S(=O)(N[C@@H]1CCN(Cc2ccc(OCC(F)F)cc2)C1)c1cccc(C(F)(F)F)c1 [Compound 64],> 8

# System: Staphylococcus aureus subsp. aureus
# Assay: MIC, 20-strain panel
# Assay type: cell-based
# Conditions: H: Staphylococcus aureus subsp. aureus, read-out: MIC
# Procedure: as §1, §2
row,Structure (SMILES),MIC [µg/mL]
1,CC(C)Oc1ccc(CN2CC[C@@H](NS(=O)(=O)c3cc(S(=O)(=O)c4ccccc4)cs3)C2)cc1 [Compound 29],> 8
2,N#Cc1cccc(S(=O)(=O)N[C@@H]2CCN(Cc3ccc(OC4CCC4)cc3)C2)c1 [Compound 109],> 8
3,CC(C)Oc1c(Cl)cc(CN2CC[C@@H](NS(=O)(=O)c3cccc(C#N)c3)C2)cc1Cl [Compound 116],> 8
4,O=S(=O)(N[C@@H]1CCN(Cc2ccc(OCC(F)F)cc2)C1)c1cccc(C(F)(F)F)c1 [Compound 64],> 8

# System: Salmonella enterica subsp. enterica typhimurium
# Assay: MIC, 20-strain panel
# Assay type: cell-based
# Conditions: F: Salmonella enterica subsp. enterica Typhimurium
# Procedure: as §1, §2
row,Structure (SMILES),MIC [µg/mL]
1,CC(C)Oc1ccc(CN2CC[C@@H](NS(=O)(=O)c3cc(S(=O)(=O)c4ccccc4)cs3)C2)cc1 [Compound 29],> 8
2,N#Cc1cccc(S(=O)(=O)N[C@@H]2CCN(Cc3ccc(OC4CCC4)cc3)C2)c1 [Compound 109],8
3,CC(C)Oc1c(Cl)cc(CN2CC[C@@H](NS(=O)(=O)c3cccc(C#N)c3)C2)cc1Cl [Compound 116],> 8
4,O=S(=O)(N[C@@H]1CCN(Cc2ccc(OCC(F)F)cc2)C1)c1cccc(C(F)(F)F)c1 [Compound 64],4

# System: E. coli JW5503 (deltolC)
# Assay: MIC, 20-strain panel
# Assay type: cell-based
# Conditions: Escherichia coli, C: E. coli JW5503 (deltolC)
# Procedure: as §1, §2
row,Structure (SMILES),MIC [µg/mL]
1,CC(C)Oc1ccc(CN2CC[C@@H](NS(=O)(=O)c3cc(S(=O)(=O)c4ccccc4)cs3)C2)cc1 [Compound 29],> 8
2,N#Cc1cccc(S(=O)(=O)N[C@@H]2CCN(Cc3ccc(OC4CCC4)cc3)C2)c1 [Compound 109],0.5
3,CC(C)Oc1c(Cl)cc(CN2CC[C@@H](NS(=O)(=O)c3cccc(C#N)c3)C2)cc1Cl [Compound 116],> 8
4,O=S(=O)(N[C@@H]1CCN(Cc2ccc(OCC(F)F)cc2)C1)c1cccc(C(F)(F)F)c1 [Compound 64],0.25
